According to US12012411B2, “Viral replication inhibitors” (Katholieke Universiteit Leuven, priority 2011, dated 2024):

Test system: DENV-2 NGC
Experiment: Antiviral activity against DENV-2 NGC in Vero-B cells (viral RNA load by RT-qPCR)
Format: cell-based, Dengue virus
Details: Dengue virus, DENV2, Vero B, DENV-2 in Vero-B cells; inhibition of viral RNA replication by 50% (Table 3)

For `COc1cc(NC(C(=O)c2c[nH]c3ncc(F)cc23)c2ccccc2)cc(OC)c1` (stereo not shown) [CPD-234], which EC50 is on record?
Its EC50 is 50 nM.

Which EC50 does the source give for `COc1cccc(NC(C(=O)c2c[nH]c3ccccc23)c2cn3ncccc3n2)c1` (stereo not shown) [CPD-238] here?
The EC50 was 40 nM.

With `COc1cccc(NC(C(=O)c2c[nH]c3ccccc23)c2cnc(OC)nc2)c1` (stereo not shown) [CPD-240] as the compound, how does the EC50 read?
Its EC50 is 110 nM.

For `COc1cncc(NC(C(=O)c2c[nH]c3ccc(F)cc23)c2ccc(OC)nc2)c1` (stereo not shown) [CPD-241], which EC50 is on record?
Its EC50 is 40 nM.

With `COc1cccc(NC(C(=O)c2cn(CCO)c3cc(F)ccc23)c2ccccc2)c1` (stereo not shown) [CPD-245] as the compound, how does the EC50 read?
Its EC50 is 80 nM.

For `COc1cccc(NC(C(=O)c2c[nH]c3ccccc23)c2cnc(OC)cn2)c1` (stereo not shown) [CPD-249], which EC50 is on record?
Its EC50 is 100 nM.

With `COc1cc(NC(C(=O)c2c[nH]c3ccccc23)c2ccccc2)cnc1OC` (stereo not shown) [CPD-256] as the compound, how does the EC50 read?
The EC50 was 190 nM.

For `COc1cccc(NC(C(=O)c2nn(C)c3ccccc23)c2ccc(C#N)cc2)c1` (stereo not shown) [CPD-260], which EC50 is on record?
The EC50 was 80 nM.

For `COc1cc(NC(C(=O)c2nn(C)c3ccccc23)c2ccccc2)cc(OC)c1` (stereo not shown) [CPD-265], which EC50 is on record?
Its EC50 is 20 nM.

With `COc1cccc(NC(C(=O)c2nn(C)c3cc(OC)ccc23)c2ccccc2)c1` (stereo not shown) [CPD-266] as the compound, how does the EC50 read?
The EC50 was 60 nM.

For `COc1cccc(NC(C(=O)c2nn(C)c3ccccc23)c2cc3ccccn3n2)c1` (stereo not shown) [CPD-273], which EC50 is on record?
The EC50 was 320 nM.

Test system: DENV-1 Djibouti strain D1/H/IMTSSA/98/606
Experiment: Antiviral activity against DENV-1 in Vero-B cells (viral RNA load by RT-qPCR)
Format: cell-based, Dengue virus
Details: Dengue virus, DENV1, Vero B

For `COc1cc(NC(C(=O)c2c[nH]c3ncc(F)cc23)c2ccccc2)cc(OC)c1` (stereo not shown) [CPD-234], which EC50 is on record?
Its EC50 is 760 nM.

For `COc1cccc(NC(C(=O)c2c[nH]c3ccccc23)c2cn3ncccc3n2)c1` (stereo not shown) [CPD-238], which EC50 is on record?
The EC50 was 540 nM.

Which EC50 does the source give for `COc1cccc(NC(C(=O)c2c[nH]c3ccccc23)c2cnc(OC)nc2)c1` (stereo not shown) [CPD-240] here?
The EC50 was 1200 nM.

Which EC50 does the source give for `COc1cncc(NC(C(=O)c2c[nH]c3ccc(F)cc23)c2ccc(OC)nc2)c1` (stereo not shown) [CPD-241] here?
Its EC50 is 620 nM.

For `COc1cccc(NC(C(=O)c2cn(CCO)c3cc(F)ccc23)c2ccccc2)c1` (stereo not shown) [CPD-245], which EC50 is on record?
Its EC50 is 700 nM.

Which EC50 does the source give for `COc1cccc(NC(C(=O)c2c[nH]c3ccccc23)c2cnc(OC)cn2)c1` (stereo not shown) [CPD-249] here?
The EC50 was 1130 nM.

For `COc1cc(NC(C(=O)c2c[nH]c3ccccc23)c2ccccc2)cnc1OC` (stereo not shown) [CPD-256], which EC50 is on record?
Its EC50 is 6760 nM.

For `COc1cccc(NC(C(=O)c2nn(C)c3ccccc23)c2ccc(C#N)cc2)c1` (stereo not shown) [CPD-260], which EC50 is on record?
The EC50 was 6630 nM.

Which EC50 does the source give for `COc1cc(NC(C(=O)c2nn(C)c3ccccc23)c2ccccc2)cc(OC)c1` (stereo not shown) [CPD-265] here?
The EC50 was 290 nM.

For `COc1cccc(NC(C(=O)c2nn(C)c3cc(OC)ccc23)c2ccccc2)c1` (stereo not shown) [CPD-266], which EC50 is on record?
Its EC50 is 700 nM.

For `COc1cccc(NC(C(=O)c2nn(C)c3ccccc23)c2cc3ccccn3n2)c1` (stereo not shown) [CPD-273], which EC50 is on record?
Its EC50 is 580 nM.

Test system: DENV-3 strain H87 prototype
Experiment: Antiviral activity against DENV-3 in Vero-B cells (viral RNA load by RT-qPCR)
Format: cell-based, Dengue virus
Details: Dengue virus, DENV3, Vero B

Which EC50 does the source give for `COc1cc(NC(C(=O)c2c[nH]c3ncc(F)cc23)c2ccccc2)cc(OC)c1` (stereo not shown) [CPD-234] here?
Its EC50 is 2000 nM.

For `COc1cccc(NC(C(=O)c2c[nH]c3ccccc23)c2cn3ncccc3n2)c1` (stereo not shown) [CPD-238], which EC50 is on record?
The EC50 was 1650 nM.

With `COc1cccc(NC(C(=O)c2c[nH]c3ccccc23)c2cnc(OC)nc2)c1` (stereo not shown) [CPD-240] as the compound, how does the EC50 read?
The EC50 was 2380 nM.

For `COc1cncc(NC(C(=O)c2c[nH]c3ccc(F)cc23)c2ccc(OC)nc2)c1` (stereo not shown) [CPD-241], which EC50 is on record?
The EC50 was 620 nM.

For `COc1cccc(NC(C(=O)c2cn(CCO)c3cc(F)ccc23)c2ccccc2)c1` (stereo not shown) [CPD-245], which EC50 is on record?
Its EC50 is 2380 nM.

With `COc1cccc(NC(C(=O)c2c[nH]c3ccccc23)c2cnc(OC)cn2)c1` (stereo not shown) [CPD-249] as the compound, how does the EC50 read?
Its EC50 is 4570 nM.

Which EC50 does the source give for `COc1cc(NC(C(=O)c2c[nH]c3ccccc23)c2ccccc2)cnc1OC` (stereo not shown) [CPD-256] here?
Its EC50 is 4490 nM.

With `COc1cccc(NC(C(=O)c2nn(C)c3ccccc23)c2ccc(C#N)cc2)c1` (stereo not shown) [CPD-260] as the compound, how does the EC50 read?
Its EC50 is 22600 nM.

Which EC50 does the source give for `COc1cc(NC(C(=O)c2nn(C)c3ccccc23)c2ccccc2)cc(OC)c1` (stereo not shown) [CPD-265] here?
The EC50 was 1640 nM.

With `COc1cccc(NC(C(=O)c2nn(C)c3cc(OC)ccc23)c2ccccc2)c1` (stereo not shown) [CPD-266] as the compound, how does the EC50 read?
The EC50 was 4320 nM.

For `COc1cccc(NC(C(=O)c2nn(C)c3ccccc23)c2cc3ccccn3n2)c1` (stereo not shown) [CPD-273], which EC50 is on record?
Its EC50 is 7660 nM.

Test system: DENV-4 strain Dak HD 34 460
Experiment: Antiviral activity against DENV-4 in Vero-B cells (viral RNA load by RT-qPCR)
Format: cell-based, Dengue virus
Details: Dengue virus, DENV4, Vero B

For `COc1cc(NC(C(=O)c2c[nH]c3ncc(F)cc23)c2ccccc2)cc(OC)c1` (stereo not shown) [CPD-234], which EC50 is on record?
Its EC50 is 4190 nM.

Which EC50 does the source give for `COc1cccc(NC(C(=O)c2c[nH]c3ccccc23)c2cn3ncccc3n2)c1` (stereo not shown) [CPD-238] here?
The EC50 was 10200 nM.

Which EC50 does the source give for `COc1cccc(NC(C(=O)c2c[nH]c3ccccc23)c2cnc(OC)nc2)c1` (stereo not shown) [CPD-240] here?
Its EC50 is 8730 nM.

For `COc1cncc(NC(C(=O)c2c[nH]c3ccc(F)cc23)c2ccc(OC)nc2)c1` (stereo not shown) [CPD-241], which EC50 is on record?
The EC50 was 5690 nM.

For `COc1cccc(NC(C(=O)c2cn(CCO)c3cc(F)ccc23)c2ccccc2)c1` (stereo not shown) [CPD-245], which EC50 is on record?
Its EC50 is 3010 nM.

Which EC50 does the source give for `COc1cccc(NC(C(=O)c2c[nH]c3ccccc23)c2cnc(OC)cn2)c1` (stereo not shown) [CPD-249] here?
The EC50 was 1980 nM.

With `COc1cc(NC(C(=O)c2c[nH]c3ccccc23)c2ccccc2)cnc1OC` (stereo not shown) [CPD-256] as the compound, how does the EC50 read?
Its EC50 is 19900 nM.

For `COc1cccc(NC(C(=O)c2nn(C)c3ccccc23)c2ccc(C#N)cc2)c1` (stereo not shown) [CPD-260], which EC50 is on record?
Its EC50 is 5440 nM.

With `COc1cc(NC(C(=O)c2nn(C)c3ccccc23)c2ccccc2)cc(OC)c1` (stereo not shown) [CPD-265] as the compound, how does the EC50 read?
Its EC50 is 4880 nM.

For `COc1cccc(NC(C(=O)c2nn(C)c3cc(OC)ccc23)c2ccccc2)c1` (stereo not shown) [CPD-266], which EC50 is on record?
Its EC50 is 3510 nM.

With `COc1cccc(NC(C(=O)c2nn(C)c3ccccc23)c2cc3ccccn3n2)c1` (stereo not shown) [CPD-273] as the compound, how does the EC50 read?
Its EC50 is 8410 nM.

Test system: not listed separately
Experiment: in vitro
Details: African green monkey

With `COc1cccc(NC(C(=O)c2cn(CCO)c3cc(F)ccc23)c2ccccc2)c1` (stereo not shown) [CPD-245] as the compound, how does the CC50 read?
Its CC50 is 16000 nM.

Same assay, conditions: African green monkey, uninfected quiescent Vero-B cells

Which CC50 at 4 days does the source give for `COc1cc(NC(C(=O)c2c[nH]c3ncc(F)cc23)c2ccccc2)cc(OC)c1` (stereo not shown) [CPD-234] here?
Its CC50 at 4 days is 15000 nM.

Which CC50 at 4 days does the source give for `COc1cccc(NC(C(=O)c2c[nH]c3ccccc23)c2cn3ncccc3n2)c1` (stereo not shown) [CPD-238] here?
The CC50 at 4 days was over 125000 nM.

With `COc1cccc(NC(C(=O)c2c[nH]c3ccccc23)c2cnc(OC)nc2)c1` (stereo not shown) [CPD-240] as the compound, how does the CC50 at 4 days read?
The CC50 at 4 days was 63000 nM.

With `COc1cncc(NC(C(=O)c2c[nH]c3ccc(F)cc23)c2ccc(OC)nc2)c1` (stereo not shown) [CPD-241] as the compound, how does the CC50 at 4 days read?
Its CC50 at 4 days is 58000 nM.

Which CC50 at 4 days does the source give for `COc1cccc(NC(C(=O)c2c[nH]c3ccccc23)c2cnc(OC)cn2)c1` (stereo not shown) [CPD-249] here?
The CC50 at 4 days was 53000 nM.

Which CC50 at 4 days does the source give for `COc1cc(NC(C(=O)c2c[nH]c3ccccc23)c2ccccc2)cnc1OC` (stereo not shown) [CPD-256] here?
Its CC50 at 4 days is 83000 nM.

Which CC50 at 4 days does the source give for `COc1cccc(NC(C(=O)c2nn(C)c3ccccc23)c2ccc(C#N)cc2)c1` (stereo not shown) [CPD-260] here?
The CC50 at 4 days was over 126000 nM.

With `COc1cc(NC(C(=O)c2nn(C)c3ccccc23)c2ccccc2)cc(OC)c1` (stereo not shown) [CPD-265] as the compound, how does the CC50 at 4 days read?
Its CC50 at 4 days is over 124000 nM.

Which CC50 at 4 days does the source give for `COc1cccc(NC(C(=O)c2nn(C)c3cc(OC)ccc23)c2ccccc2)c1` (stereo not shown) [CPD-266] here?
The CC50 at 4 days was over 124000 nM.

Which CC50 at 4 days does the source give for `COc1cccc(NC(C(=O)c2nn(C)c3ccccc23)c2cc3ccccn3n2)c1` (stereo not shown) [CPD-273] here?
Its CC50 at 4 days is over 122000 nM.
